{
  "source": "patent US7960544B2",
  "about": "“Useful indole compounds” (Ironwood Pharmaceuticals, Inc., priority 2005, dated 2011)",
  "origin": "cited, not measured here",
  "key": {"MCF-7 cells": {"system": "MCF-7 cells", "settings": "up to 100 μM"}, "DAO": {"molecular_target": "DAO (Homo sapiens, UniProt P14920)", "sequence (P14920 whole entry)": "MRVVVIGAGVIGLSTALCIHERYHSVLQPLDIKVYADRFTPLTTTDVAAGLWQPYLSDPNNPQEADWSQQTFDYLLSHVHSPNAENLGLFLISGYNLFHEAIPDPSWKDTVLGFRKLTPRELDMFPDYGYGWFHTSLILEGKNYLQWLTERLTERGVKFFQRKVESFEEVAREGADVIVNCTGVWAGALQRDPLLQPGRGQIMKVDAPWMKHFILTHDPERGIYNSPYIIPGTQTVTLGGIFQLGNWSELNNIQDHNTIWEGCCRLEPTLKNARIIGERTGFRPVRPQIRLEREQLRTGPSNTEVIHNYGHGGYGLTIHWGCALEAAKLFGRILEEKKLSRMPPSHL"}, "CCR3": {"system": "CCR3", "settings": "cross-desensitization"}},
  "data": [
    {"compound": "CCCCC/C=C\\C/C=C\\C/C=C\\C/C=C\\CCCC(=O)NCCO", "note": "[anandamide]", "values": [
      {"measurement": "cell viability (as assessed by trypan blue)", "setting": "MCF-7 cells", "result": "No significant decrease in cell viability"}
    ]},
    {"compound": "Cc1c(CC(=O)O)c2cc(O)ccc2n1C(=O)c1ccc(Cl)cc1", "note": "[desmethyl metabolite, (1-(4-chlorobenzoyl)-5-hydroxy-2-methyl-1H-indol-3-yl]acetic acid]", "values": [
      {"measurement": "ability to inhibit prostaglandin synthesis", "setting": "prostaglandin synthesis", "result": "has some ability to inhibit prostaglandin synthesis"}
    ]},
    {"compound": "COc1ccc2c(c1)c(CC(=O)O)c(C)n2C(=O)c1ccc(Cl)cc1", "note": "[indomethacin]", "values": [
      {"measurement": "inhibition of DAO", "setting": "DAO", "result": "inhibitor of DAO"},
      {"measurement": "expression of CCR3, the receptor for eotaxin", "setting": "CCR3", "result": "reduces expression of CCR3"}
    ]}
  ]
}
